Data reported in patent US10829501B2 (BRISTOL-MYERS SQUIBB COMPANY, priority 2016, dated 2020).
Structures can show the parent of a compound that is named as a salt.

molecular target: ROCK2 (Homo sapiens, UniProt O75116); assay: ROCK2 kinase inhibition assay (LABCHIP 3000 Reader, FITC peptide substrate); details: not given;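 further: rho kinase reaction read by separating phosphorylated from unphosphorylated peptide on chip, with inhibition of kinase activity computed per concentration across a dose-response series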
Sequence (O75116 whole entry, species assumed): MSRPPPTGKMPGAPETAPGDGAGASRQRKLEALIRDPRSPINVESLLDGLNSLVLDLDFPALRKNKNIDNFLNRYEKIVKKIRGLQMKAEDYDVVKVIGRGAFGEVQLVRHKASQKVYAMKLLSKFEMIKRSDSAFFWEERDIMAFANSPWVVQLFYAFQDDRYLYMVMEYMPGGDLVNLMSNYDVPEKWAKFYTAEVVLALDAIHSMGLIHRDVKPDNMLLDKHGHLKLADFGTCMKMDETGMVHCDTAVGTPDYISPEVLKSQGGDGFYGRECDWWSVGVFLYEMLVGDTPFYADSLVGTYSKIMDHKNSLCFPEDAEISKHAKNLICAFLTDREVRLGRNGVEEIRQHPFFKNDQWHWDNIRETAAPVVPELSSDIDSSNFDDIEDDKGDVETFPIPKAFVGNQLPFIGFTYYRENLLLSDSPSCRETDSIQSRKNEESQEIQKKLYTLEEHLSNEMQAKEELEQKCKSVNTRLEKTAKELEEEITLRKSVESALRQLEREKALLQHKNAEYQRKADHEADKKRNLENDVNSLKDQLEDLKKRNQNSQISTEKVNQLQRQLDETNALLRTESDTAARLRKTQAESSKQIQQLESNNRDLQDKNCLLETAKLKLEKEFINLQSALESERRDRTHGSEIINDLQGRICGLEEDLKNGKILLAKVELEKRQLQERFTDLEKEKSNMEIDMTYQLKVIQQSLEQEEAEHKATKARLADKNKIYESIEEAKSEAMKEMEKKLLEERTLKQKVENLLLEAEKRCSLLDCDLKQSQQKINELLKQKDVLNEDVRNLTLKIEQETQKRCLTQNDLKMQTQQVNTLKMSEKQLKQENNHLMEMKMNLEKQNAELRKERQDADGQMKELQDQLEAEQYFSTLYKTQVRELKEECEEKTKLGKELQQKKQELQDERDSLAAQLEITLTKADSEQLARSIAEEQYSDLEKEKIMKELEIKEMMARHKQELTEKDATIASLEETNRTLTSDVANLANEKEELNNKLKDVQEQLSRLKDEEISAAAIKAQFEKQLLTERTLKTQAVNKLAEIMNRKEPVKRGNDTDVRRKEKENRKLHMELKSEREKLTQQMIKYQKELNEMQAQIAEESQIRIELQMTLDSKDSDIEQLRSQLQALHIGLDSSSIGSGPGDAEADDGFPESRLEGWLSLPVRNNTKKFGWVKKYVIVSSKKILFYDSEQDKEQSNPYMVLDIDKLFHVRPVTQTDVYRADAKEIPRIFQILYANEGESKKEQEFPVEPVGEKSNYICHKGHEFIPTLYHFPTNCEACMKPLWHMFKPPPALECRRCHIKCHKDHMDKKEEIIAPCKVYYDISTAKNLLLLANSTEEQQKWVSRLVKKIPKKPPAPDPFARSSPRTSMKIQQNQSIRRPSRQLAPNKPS

Row | IC50 | SMILES
1 | 5 to 50 nM | NC(=O)c1cccnc1O[C@H]1CC2(C[C@H](NC(=O)c3cnn4cc(OCC5(O)CC(F)(F)C5)ccc34)C2)C1 (stereo partly drawn) [Example 413, N-((aR)-6-((3-carbamoylpyridin-2-yl)oxy)spiro[3.3]heptan-2-yl)-6-((3,3-difluoro-1-hydroxycyclobutyl)methoxy)pyrazolo[1,5-a]pyridine-3-carboxamide, TFA]
2 | < 5 nM | NC(=O)c1cccnc1O[C@H]1CC2(C[C@H](NC(=O)c3cnn4c(C5CC5)c(OCC5(O)CC(F)(F)C5)ccc34)C2)C1 (stereo partly drawn) [Example 415, N-((aR)-6-((3-carbamoylpyridin-2-yl)oxy)spiro[3.3]heptan-2-yl)-7-cyclopropyl-6-((3,3-difluoro-1-hydroxycyclobutyl)methoxy)pyrazolo[1,5-a]pyridine-3-carboxamide, TFA]
3 | 5 to 50 nM | CN(C)Cc1nc(C(=O)N[C@H]2CC3(C2)C[C@H](Oc2ncccc2C(N)=O)C3)c2ccc(OCc3ccccc3)cn12 (stereo partly drawn) [Example 416, 6-(benzyloxy)-N-((aR)-6-((3-carbamoylpyridin-2-yl)oxy)spiro[3.3]heptan-2-yl)-3-((dimethylamino)melhyl)imidazo[1,5-a]pyridine-1-carboxamide, TFA]
4 | 5 to 50 nM | NC(=O)c1cccnc1OC1CC2(CC(NC(=O)c3cnc(-c4ccc(S(=O)(=O)C5CC5)cc4)s3)C2)C1 [Example 417, N-((aR)-6-((3-carbainoylpyridin-2-yl)oxy)spiro[3.3]heptan-2-yl)-2-(4-(cyclopropylsulfonyl)phenyl)thiazole-5-carboxamide, TFA]
5 | 5 to 50 nM | N#Cc1ccc(-c2ncc(C(=O)NC3CC4(C3)CC(Oc3ncccc3C(N)=O)C4)s2)cc1 [Example 418, N-((aR)-6-((3-carbamoylpyridin-2-yl)oxy)spiro[3.3]heptan-2-yl)-2-(4-cyanophenyl)thiazole-5-carboxamide, TFA]
6 | 50 to 250 nM | CNC(=O)c1ccc(-c2ncc(C(=O)NC3CC4(C3)CC(Oc3ncccc3C(N)=O)C4)s2)cc1F [Example 419, N-((aR)-6-((3-carbamoylpyridin-2-yl)oxy)spiro[3.3]heptan-2-yl)-2-(3-fluoro-4-(methylcarbamoyl)phenyl)thiazole-5-carboxamide, TFA]
7 | 5 to 50 nM | N#Cc1cccc(-c2ncc(C(=O)NC3CC4(C3)CC(Oc3ncccc3C(N)=O)C4)s2)c1 [Example 420, N-((aR)-6-((3-carbamoylpyridin-2-yl)oxy)spiro[3.3]heptan-2-yl)-2-(3-cyanophenyl)thiazole-5-carboxamide, TFA]
8 | < 5 nM | Cc1ncc(-c2ccc3c(C(=O)NC4CC5(C4)CC(Oc4ncccc4C(N)=O)C5)nc(C(F)F)n3c2)s1 [Example 436, N-((aR)-6-((3-carbamoylpyridin-2-yl)oxy)spiro[3.3]heptan-2-yl)-3-(difluoromethyl)-6-(2-methylthiazol-5-yl)imidazo[1,5-a]pyridine-1-carboxamide]
9 | 5 to 50 nM | Cn1cc(-c2ccc3c(C(=O)NC4CC5(C4)CC(Oc4ncccc4C(N)=O)C5)nc(C(F)F)n3c2)c(C(F)(F)F)n1 [Example 438, N-((aR)-6-((3-carbamoylpyridin-2-yl)oxy)spiro[3.3]heptan-2-yl)-3-(difluoromethyl)-6-(1-methyl-3-(trifluoromethyl)-1H-pyrazol-4-yl)imidazo[1,5-a]pyridine-1-carboxamide]

same assay, conditions: read-out: ROCK2 Activity (ROCK2 IC50); 5 μM ATP, 1.5 μM peptide substrate, pH 7.5

Row | IC50 | SMILES
10 | 5 to 50 nM | NC(=O)c1cccnc1OC1CC2(CC(NC(=O)c3nc(Br)n4ccccc34)C2)C1 [Example 421, 3-bromo-N-((aR)-6-((3-carbamoylpyridin-2-yl)oxy)spiro[3.3]heptan-2-yl)imidazo[1,5-a]pyridine-1-carboxamide]
11 | 5 to 50 nM | CN1CCN(c2cc(C(=O)NC3CC4(C3)CC(Oc3ncccc3C(N)=O)C4)cc(C(F)(F)F)c2)CC1 [Example 422, 2-(((aR)-6-(3-(4-methylpiperazin-1-yl)-5-(trifluoromethyl)benzamido)spiro[3.3]heptan-2-yl)oxy)nicotinamide]
12 | 5 to 50 nM | CC(C)(C)c1cccc(C(=O)NC2CC3(C2)CC(Oc2ncccc2C(N)=O)C3)c1 [Example 423, 2-(((aR)-6-(3-(tert-butyl)benzamido)spiro[3.3]heptan-2-yl)oxy)nicotinamide]
13 | 5 to 50 nM | Cn1cc2c(C(=O)NC3CC4(C3)CC(Oc3ncccc3C(N)=O)C4)cc(Br)cc2n1 [Example 424, 6-bromo-N-((aR)-6-((3-carbamoylpyridin-2-yl)oxy)spiro[3.3]heptan-2-yl)-2-methyl-2H-indazole-4-carboxamide]
14 | 5 to 50 nM | Cn1ncc2c(C(=O)NC3CC4(C3)CC(Oc3ncccc3C(N)=O)C4)cc(Br)cc21 [Example 425, 6-bromo-N-((aR)-6-((3-carbamoylpyridin-2-yl)oxy)spiro[3.3]heptan-2-yl)-1-methyl-1H-indazole-4-carboxamide]
15 | 5 to 50 nM | NC(=O)c1cccnc1OC1CC2(CC(NC(=O)c3cc(C(F)(F)F)cc4c3NC(=O)OC4)C2)C1 [Example 426, N-((aR)-6-((3-carbamoylpyridin-2-yl)oxy)spiro[3.3]heptan-2-yl)-2-oxo-6-(trifluoromethyl)-1,4-dihydro-2H-benzo[d][1,3]oxazine-8-carboxamide]
16 | 5 to 50 nM | NC(=O)c1cccnc1OC1CC2(CC(NC(=O)c3cc(Br)cc(C(F)(F)F)c3)C2)C1 [Example 427, 2-(((aR)-6-(3-bromo-5-(trifluoromethyl)benzamido)spiro[3.3]heptan-2-yl)oxy)nicotinamide]
17 | < 5 nM | Cn1cc(-c2cc(C(=O)NC3CC4(C3)CC(Oc3ncccc3C(N)=O)C4)cc(C(F)(F)F)c2)cn1 [Example 428, 2-(((aR)-6-(3-(1-methyl-1H-pyrazol-4-yl)-5-(trifluoromethyl)benzamido)spiro[3.3]heptan-2-yl)oxy)nicotinamide]
18 | 5 to 50 nM | NC(=O)c1cccnc1OC1CC2(CC(NC(=O)c3nc(C(F)(F)F)n4cc(Br)ccc34)C2)C1 [Example 429, 6-bromo-N-((aR)-6-((3-carbamoylpyridin-2-yl)oxy)spiro[3.3]heptan-2-yl)-3-(trifluoromethyl)imidazo[1,5-a]pyridine-1-carboxamide]
19 | 5 to 50 nM | NC(=O)c1cccnc1OC1CC2(CC(NC(=O)c3nc(C(F)(F)F)n4ccccc34)C2)C1 [Example 430, N-((aR)-6-((3-carbamoylpyridin-2-yl)oxy)spiro[3.3]heptan-2-yl)-3-(trifluoromethyl)imidazo[1,5-a]pyridine-1-carboxamide]
20 | 5 to 50 nM | NC(=O)c1cccnc1OC1CC2(CC(NC(=O)c3nc(C(F)(F)F)n4cc(OCc5ccccc5)ccc34)C2)C1 [Example 431, 6-(benzyloxy)-N-((aR)-6-((3-carbamoylpyridin-2-yl)oxy)spiro[3.3]heptan-2-yl)-3-(trifluoromethyl)imidazo[1,5-a]pyridine-1-carboxamide]
21 | 5 to 50 nM | NC(=O)c1cccnc1OC1CC2(CC(NC(=O)c3nc(C(F)(F)F)n4cc(OS(=O)(=O)C(F)(F)F)ccc34)C2)C1 [Example 432, 1-(((aR)-6-((3-carbamoylpyridin-2-yl)oxy)spiro[3.3]heptan-2-yl)carbamoyl)-3-(trifluoromethyl)imidazo[1,5-a]pyridin-6-yl Trifluoromethanesulfonate]
22 | < 5 nM | Cn1cc(-c2ccc3c(C(=O)NC4CC5(C4)CC(Oc4ncccc4C(N)=O)C5)nc(C(F)(F)F)n3c2)cn1 [Example 433, N-((aR)-6-((3-carbamoylpyridin-2-yl)oxy)spiro[3.3]heptan-2-yl)-6-(1-methyl-1H-pyrazol-4-yl)-3-(trifluoromethyl)imidazo[1,5-a]pyridine-1-carboxamide]
23 | 5 to 50 nM | CC(C)(O)COc1ccc2c(C(=O)NC3CC4(C3)CC(Oc3ncccc3C(N)=O)C4)nc(C(F)(F)F)n2c1 [Example 434, N-((aR)-6-((3-carbamoylpyridin-2-yl)oxy)spiro[3.3]heptan-2-yl)-6-(2-hydroxy-2-methylpropoxy)-3-(trifluoromethyl)imidazo[1,5-a]pyridine-1-carboxamide]
24 | < 5 nM | NC(=O)c1cccnc1OC1CC2(CC(NC(=O)c3nc(C(F)F)n4cc(OCc5ccccc5)ccc34)C2)C1 [Example 435, 6-(benzyloxy)-N-((aR)-6-((3-carbamoylpyridin-2-yl)oxy)spiro[3.3]heptan-2-yl)-3-(difluoromethyl)imidazo[1,5-a]pyridine-1-carboxamide]
25 | 5 to 50 nM | Cn1cncc1-c1ccc2c(C(=O)NC3CC4(C3)CC(Oc3ncccc3C(N)=O)C4)nc(C(F)F)n2c1 [Example 437, N-((aR)-6-((3-carbamoylpyridin-2-yl)oxy)spiro[3.3]heptan-2-yl)-3-(difluoromethyl)-6-(1-methyl-1H-imidazol-5-yl)imidazo[1,5-a]pyridine-1-carboxamide]
26 | < 5 nM | Cn1cc(-c2ccc3c(C(=O)NC4CC5(C4)CC(Oc4ncccc4C(N)=O)C5)nc(C(F)F)n3c2)cn1 [Example 439, N-((aR)-6-((3-carbamoylpyridin-2-yl)oxy)spiro[3.3]heptan-2-yl)-3-(difluoromethyl)-6-(1-methyl-1H-pyrazol-4-yl)imidazo[1,5-a]pyridine-1-carboxamide]
27 | < 5 nM | NC(=O)c1cccnc1OC1CC2(CC(NC(=O)c3nc(C(F)F)n4cc(N5CCOCC5)ccc34)C2)C1 [Example 440, N-((aR)-6-((3-carbamoylpyridin-2-yl)oxy)spiro[3.3]heptan-2-yl)-3-(difluoromethyl)-6-morpholinoimidazo[1,5-a]pyridine-1-carboxamide]
28 | 250 to 2500 nM | CC(C)(O)CNc1ccc2c(C(=O)NC3CC4(C3)CC(Oc3ncccc3C(N)=O)C4)nc(C(F)F)n2c1 [Example 442, N-((aR)-6-((3-carbamoylpyridin-2-yl)oxy)spiro[3.3]heptan-2-yl)-3-(difluoromethyl)-6-((2-hydroxy-2-methylpropyl)amino)imidazo[1,5-a]pyridine-1-carboxamide]

Row | SMILES | IC50
29 | CC(C)(O)CCOc1ccc2c(C(=O)NC3CC4(C3)CC(Oc3ncccc3C(N)=O)C4)nc(C(F)F)n2c1 [Example 441, N-((aR)-6-((3-carbamoylpyridin-2-yl)oxy)spiro[3.3]heptan-2-yl)-3-(difluoromethyl)-6-(3-hydroxy-3-methylbutoxy)imidazo[1,5-a]pyridine-1-carboxamide] | < 5 nM
